Biological target: GST-tagged truncated human mutant G2019S LRRK2 (Homo sapiens (Human), UniProt Q5S007, G2019S)
Test: LRRK2 G2019S Km ATP LanthaScreen Assay
Assay type: biochemical
Conditions: 134 μM ATP (Km ATP); fluorescein-labeled LRRKtide substrate; mean IC50 values
Method: The IC50 values reported herein were measured as follows.
Biological Assay: LRRK2 Km ATP LanthaScreen™ Assay
The data presented for the Km ATP LanthaScreen™ Assay represents mean IC50 values based on several test results and may have reasonable deviations depending on the specific conditions and reagents used. Assays were performed in the presence of 134 μM ATP (Km ATP). Upon completion, the assay was stopped and phosphorylated substrate detected with a terbium (Tb)-labeled anti-pERM antibody (cat. no. PV4898). The compound dose response was prepared by diluting a 10 mM stock of compound to a maximum concentration of […] in 100% dimethylsulfoxide followed by custom fold serial dilution in dimethylsulfoxide nine times. Twenty nanoliters of each dilution was spotted via a Labcyte Echo onto a 384-well black-sided plate (Corning 3575) followed by 15 μl of a 1.25 nM enzyme solution in 1× assay buffer (50 mM Tris pH 8.5, 10 mM MgCl2, 0.01% Brij-35, 1 mM EGTA, 2 mM dithiothreitol, 0.05 mM sodium orthovanadate). Following a 15-minute incubation at room temperature, the kinase reaction was started with the addition of 5 μl of 400 nM fluorescein-labeled LRRKtide peptide substrate and 134 μM ATP solution in 1× assay buffer. The reaction was allowed to progress at ambient temperature for 90 minutes. The reaction was then stopped by the addition of 20 μl of TR-FRET Dilution Buffer (Life Technologies, Carlsbad, Calif.) containing 2 nM Tb-labeled anti-phospho LRRKtide antibody and 10 mM EDTA (Life Technologies, Carlsbad, Calif.). After an incubation of 1 hour at room temperature, the plate was read on an EnVision multimode plate reader (Perkin Elmer, Waltham, Mass.) with an excitation wavelength of 337 nm (Laser) and a reading emission at both 520 and 495 nm. […] Abase uses a 4 parameter (4P) logistic fit based on the Levenberg-Marquardt algorithm.

GST-tagged truncated human mutant G2019S LRRK2, sequence (Q5S007 970-2527 G2019S): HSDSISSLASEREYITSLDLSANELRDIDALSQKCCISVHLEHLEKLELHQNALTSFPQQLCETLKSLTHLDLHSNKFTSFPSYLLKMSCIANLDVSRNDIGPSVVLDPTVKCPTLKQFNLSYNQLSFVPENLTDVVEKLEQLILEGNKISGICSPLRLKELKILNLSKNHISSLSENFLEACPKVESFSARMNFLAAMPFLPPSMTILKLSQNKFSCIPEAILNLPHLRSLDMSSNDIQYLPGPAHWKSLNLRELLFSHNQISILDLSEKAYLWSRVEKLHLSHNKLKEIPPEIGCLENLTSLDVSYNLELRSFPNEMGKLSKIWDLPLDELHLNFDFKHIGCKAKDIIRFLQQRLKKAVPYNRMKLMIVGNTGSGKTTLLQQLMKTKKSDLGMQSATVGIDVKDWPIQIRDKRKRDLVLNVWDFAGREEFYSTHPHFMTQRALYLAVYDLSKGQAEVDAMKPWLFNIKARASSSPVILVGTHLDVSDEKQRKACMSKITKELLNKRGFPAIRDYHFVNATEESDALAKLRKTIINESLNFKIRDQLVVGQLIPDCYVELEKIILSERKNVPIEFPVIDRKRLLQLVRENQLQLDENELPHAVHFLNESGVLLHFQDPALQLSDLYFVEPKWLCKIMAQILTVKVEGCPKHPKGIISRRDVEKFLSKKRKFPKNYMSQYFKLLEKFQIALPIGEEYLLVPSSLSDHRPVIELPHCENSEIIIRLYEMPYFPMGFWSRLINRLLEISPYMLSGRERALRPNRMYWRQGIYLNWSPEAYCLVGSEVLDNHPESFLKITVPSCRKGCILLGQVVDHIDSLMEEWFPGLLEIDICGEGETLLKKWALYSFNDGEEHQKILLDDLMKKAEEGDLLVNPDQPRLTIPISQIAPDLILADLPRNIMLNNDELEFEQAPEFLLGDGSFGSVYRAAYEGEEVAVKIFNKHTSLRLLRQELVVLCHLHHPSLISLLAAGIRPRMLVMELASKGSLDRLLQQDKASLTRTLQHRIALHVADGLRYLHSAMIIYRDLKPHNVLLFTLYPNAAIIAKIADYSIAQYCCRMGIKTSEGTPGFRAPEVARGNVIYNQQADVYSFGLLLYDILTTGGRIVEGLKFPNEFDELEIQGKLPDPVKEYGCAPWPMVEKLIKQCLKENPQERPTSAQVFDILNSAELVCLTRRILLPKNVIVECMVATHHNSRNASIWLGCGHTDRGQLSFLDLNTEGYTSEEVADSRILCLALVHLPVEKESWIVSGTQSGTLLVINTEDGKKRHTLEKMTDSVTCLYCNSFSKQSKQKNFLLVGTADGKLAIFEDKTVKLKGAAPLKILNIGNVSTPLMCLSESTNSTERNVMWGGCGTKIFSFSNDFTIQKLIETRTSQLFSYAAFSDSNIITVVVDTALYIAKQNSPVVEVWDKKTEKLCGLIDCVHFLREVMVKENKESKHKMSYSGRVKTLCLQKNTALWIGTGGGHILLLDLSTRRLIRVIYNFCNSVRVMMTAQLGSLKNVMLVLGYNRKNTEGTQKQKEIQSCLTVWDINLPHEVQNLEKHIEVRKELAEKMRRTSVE

Row | SMILES | IC50 [nM]
1 | COc1nc(N2C[C@@H](C)[C@@](C)(O)[C@@H](C)C2)cc(-n2ncc3ccc([C@]4(C#N)CC45CC5)cc32)n1 [Example 3.4] | 1.5
2 | CC(C)(O)[C@@H]1CN(c2cc(-n3ncc4ccc([C@]5(C#N)CC56CC6)cc43)ncn2)C[C@@H]1F [Example 4.12-2] | 0.6
3 | CNc1nc(N2CC[C@@H](C(C)(C)O)C2)cc(-n2ncc3ccc(C4(C#N)CC45CC5)cc32)n1 (stereo partly drawn) [Example 2.6-1, 1-(1-(6-((R)-3-(2-hydroxypropan-2-yl)pyrrolidin-1-yl)-2-(methylamino)pyrimidin-4-yl)-1H-indazol-6-yl)spiro[1.2.2]pentane-1-carbonitrile] | 0.8
4 | CC(C)(O)[C@@H]1CCN(c2cc(-n3ncc4cnc(C5(C#N)CC56CC6)cc43)ncn2)C1 (single isomer, unassigned) [Example 5.3-1] | 7.5
5 | CC1C(C(C)(C)O)CCN1c1cc(-n2ncc3ccc([C@@]4(C#N)CC45CC5)cc32)ncn1 (single isomer, unassigned) [Example 3.5-5] | 27.6
6 | CC(C)(O)C1CN(c2cc(-n3ncc4ccc([C@]5(C#N)CC56CC6)cc43)ncn2)CCO1 (single isomer, unassigned) [Example 4.3-2, 1-(1-(6-(2-(2-hydroxypropan-2-yl)morpholino)pyrimidin-4-yl)-1H-indazol-6-yl)spiro[2.2]pentane-1-carbonitrile] | 0.6
7 | Cc1cc(-n2ncc3ccc([C@]4(C#N)CC45CC5)cc32)cc(C)n1 [Example 11.5] | 7.8
8 | COc1nc(N2CC3(C(C)(C)O)CC2C3)cc(-n2ncc3ccc(C4(C#N)CC45CC5)cc32)n1 (single isomer, unassigned) [Example 2.5-1, 1-(1-(6-(4-(2-hydroxypropan-2-yl)-2-azabicyclo[2.1.1]hexan-2-yl)-2-methoxypyrimidin-4-yl)-1H-indazol-6-yl)spiro[2.2]pentane-1-carbonitrile] | 0.9
9 | C[C@H]1CN(c2cc(-n3ncc4ccc([C@]5(C#N)CC56CC6)cc43)ncn2)CCN1C1CCOC1 (some centres unmarked) [Example 3.8-4] | 0.6
10 | Cc1cc(-n2ncc3ccc([C@]4(C#N)CC45CC5)cc32)ncn1 [Example 11.7] | 7.4
11 | CNc1nc(C)cc(-n2ncc3ccc([C@]4(C#N)CC45CC5)cc32)n1 [Example 4.25] | 3.5
12 | CCc1cc(-n2ncc3ccc([C@]4(C#N)CC45CC5)cc32)nc(C)n1 [Example 4.26] | 3.1
13 | CC1C(C(C)(C)O)CCN1c1cc(-n2ncc3ccc([C@@]4(C#N)CC45CC5)cc32)ncn1 (single isomer, unassigned) [Example 3.5-3] | 1.9
14 | Cc1nc(N2CC3(C(C)(C)O)CC2C3)cc(-n2ncc3cc(F)c(C4(C#N)CC45CC5)cc32)n1 (single isomer, unassigned) [Example 5.6-1, 1-(5-fluoro-1-(6-(4-(2-hydroxypropan-2-yl)-2-azabicyclo[2.1.1]hexan-2-yl)-2-methylpyrimidin-4-yl)-1H-indazol-6-yl)spiro[2.2]pentane-1-carbonitrile] | 20.9
15 | CC(C)(O)C12CC(C1)N(c1cc(-n3ncc4cc(F)c(C5(C#N)CC56CC6)cc43)ncn1)C2 (single isomer, unassigned) [Example 5.5-1, 1-(5-fluoro-1-(6-(4-(2-hydroxypropan-2-yl)-2-azabicyclo[2.1.1]hexan-2-yl)pyrimidin-4-yl)-1H-indazol-6-yl)spiro[2.2]pentane-1-carbonitrile] | 3.9
16 | CC(C)(O)C12CC(C1)N(c1cc(-n3ncc4cnc(C5(C#N)CC56CC6)cc43)ncn1)C2 (single isomer, unassigned) [Example 5.2-1, 1-(1-(6-(4-(2-hydroxypropan-2-yl)-2-azabicyclo[2.1.1]hexan-2-yl)pyrimidin-4-yl)-1H-pyrazolo[4,3-c]pyridin-6-yl)spiro[2.2]pentane-1-carbonitrile] | 9.2
17 | Cc1cc(-n2ncc3ccc(C4(C#N)CC45CC5)cc32)cc(N2CC3(C(C)(C)O)CC2C3)n1 (single isomer, unassigned) [Example 7.3-1, (R or S)-1-(1-(2-(4-(2-hydroxypropan-2-yl)-2-azabicyclo[2.1.1]hexan-2-yl)-6-methylpyridin-4-yl)-1H-indazol-6-yl)spiro[2.2]pentane-1-carbonitrile] | 54.2
18 | CC(C)(O)[C@@H]1CCN(c2cc(-n3ncc4ccc(C5(C#N)CC56CC6)cc43)ncn2)C1 (single isomer, unassigned) [Example 1.4-1, (R or S)-1-(1-(6-((R)-3-(2-hydroxypropan-2-yl)pyrrolidin-1-yl)pyrimidin-4-yl)-1H-indazol-6-yl)spiro[2.2]pentane-1-carbonitrile] | 1
19 | CC1(O)CN(c2cc(-n3ncc4ccc([C@]5(C#N)CC56CC6)cc43)ncn2)C1 [Example 4.2] | 1.3

Row | SMILES | IC50 [nM]
20 | CC1(O)CC2(CN(c3cc(-n4ncc5ccc([C@]6(C#N)CC67CC7)cc54)ncn3)C2)C1 [Example 3.9-2] | 1.5
21 | CC1C(C(C)(C)O)CCN1c1cc(-n2ncc3ccc([C@]4(C#N)CC45CC5)cc32)ncn1 (single isomer, unassigned) [Example 3.5-8] | 1.1
22 | C[C@@H]1CN(c2cc(-n3ncc4ccc([C@]5(C#N)CC56CC6)cc43)ncn2)C[C@H](C)N1C1COC1 [Example 4.1] | 0.6
23 | Cc1nc(N2CC3(CN(CC(F)(F)F)C3)C2)cc(-n2ncc3ccc(C4(C#N)CC45CC5)cc32)n1 (centres unmarked) [Example 12.2] | 28.4
24 | CC(C)(O)C12CC(C1)N(c1cc(-n3ncc4c(F)cc(C5(C#N)CC56CC6)cc43)ncn1)C2 (single isomer, unassigned) [Example 4.15-1] | 18.4
25 | CNc1nc(N2CC3(C(C)(C)O)CC2C3)cc(-n2ncc3ccc(C4(C#N)CC45CC5)cc32)n1 (single isomer, unassigned) [Example 2.7-1, 1-(1-(6-(4-(2-hydroxypropan-2-yl)-2-azabicyclo[2.1.1]hexan-2-yl)-2-(methylamino)pyrimidin-4-yl)-1H-indazol-6-yl)spiro[2.2]pentane-1-carbonitrile] | 3
26 | COC1(C(C)(C)O)CCN(c2cc(-n3ncc4ccc([C@]5(C#N)CC56CC6)cc43)ncn2)C1 (single isomer, unassigned) [Example 3.10-4] | 0.9
27 | CC(C)(O)[C@@H]1CCN(c2cc(-n3ncc4ccc([C@@]5(C#N)CC56CC6)cc43)ccn2)C1 [Example 6.2-1] | 1.8
28 | CC(C)(O)C12CC(C1)N(c1cc(-n3ncc4ccc(C5(C#N)CC56CC6)cc43)cnn1)C2 (single isomer, unassigned) [Example 10.3-1, (R or S)-1-(1-(6-(4-(2-hydroxypropan-2-yl)-2-azabicyclo[2.1.1]hexan-2-yl)pyridazin-4-yl)-1H-indazol-6-yl)spiro[2.2]pentane-1-carbonitrile] | 35.2
29 | CC1C(C(C)(C)O)CCN1c1cc(-n2ncc3ccc([C@]4(C#N)CC45CC5)cc32)ncn1 (single isomer, unassigned) [Example 3.5-6] | 4.9
30 | C[C@@H]1CN(c2cc(-n3ncc4ccc([C@]5(C#N)CC56CC6)cc43)ncn2)CCN1C1COC1 [Example 3.1-2] | 0.6
31 | C[C@H]1CN(c2cc(-n3ncc4ccc([C@@]5(C#N)CC56CC6)cc43)ncn2)CCN1C1CCOC1 (single isomer, unassigned) [Example 3.8-3] | 1.3
32 | CC1CN(c2cc(-n3ncc4ccc([C@]5(C#N)CC56CC6)cc43)ncn2)CC1C(C)(C)O (single isomer, unassigned) [Example 3.6-4] | 2.1
33 | CC1C(C(C)(C)O)CCN1c1cc(-n2ncc3ccc([C@]4(C#N)CC45CC5)cc32)ncn1 (single isomer, unassigned) [Example 3.5-2] | 31.6
34 | N#C[C@]1(c2ccc3cnn(-c4cc(N5CC(O)C6(CC6)C5)ncn4)c3c2)CC12CC2 (single isomer, unassigned) [Example 3.11-1] | 6.7
35 | CC(C)(O)C12CC(C1)N(c1cc(-n3ncc4cc(F)c(C5(C#N)CC56CC6)cc43)ncn1)C2 (single isomer, unassigned) [Example 5.5-2, 1-(5-fluoro-1-(6-(4-(2-hydroxypropan-2-yl)-2-azabicyclo[2.1.1]hexan-2-yl)pyrimidin-4-yl)-1H-indazol-6-yl)spiro[2.2]pentane-1-carbonitrile] | 31.6
36 | CC1C(C(C)(C)O)CCN1c1cc(-n2ncc3ccc([C@@]4(C#N)CC45CC5)cc32)ncn1 (single isomer, unassigned) [Example 3.5-1] | 123
37 | COCc1nc(N2CC3(C(C)(C)O)CC2C3)cc(-n2ncc3ccc(C4(C#N)CC45CC5)cc32)n1 (single isomer, unassigned) [Example 2.3-1, (R or S)-1-(1-(6-(4-(2-hydroxypropan-2-yl)-2-azabicyclo[2.1.1]hexan-2-yl)-2-(methoxymethyl)pyrimidin-4-yl)-1H-indazol-6-yl)spiro[2.2]pentane-1-carbonitrile] | 1.1
38 | Cc1nc(N2CC3(C2)CN(C2COC2)C3)cc(-n2ncc3ccc([C@]4(C#N)CC45CC5)cc32)n1 [Example 11.3] | 454
